These results are taken from publication PMC5823473, “Host-parasite co-metabolic activation of antitrypanosomal aminomethyl-benzoxaboroles” (PLoS Pathogens, 2018).

One test deals with T1, MAOa (Homo sapiens, UniProt P21397).
T1 construct: commercial recombinant enzyme (Sigma)
T1 sequence (P21397 1-527): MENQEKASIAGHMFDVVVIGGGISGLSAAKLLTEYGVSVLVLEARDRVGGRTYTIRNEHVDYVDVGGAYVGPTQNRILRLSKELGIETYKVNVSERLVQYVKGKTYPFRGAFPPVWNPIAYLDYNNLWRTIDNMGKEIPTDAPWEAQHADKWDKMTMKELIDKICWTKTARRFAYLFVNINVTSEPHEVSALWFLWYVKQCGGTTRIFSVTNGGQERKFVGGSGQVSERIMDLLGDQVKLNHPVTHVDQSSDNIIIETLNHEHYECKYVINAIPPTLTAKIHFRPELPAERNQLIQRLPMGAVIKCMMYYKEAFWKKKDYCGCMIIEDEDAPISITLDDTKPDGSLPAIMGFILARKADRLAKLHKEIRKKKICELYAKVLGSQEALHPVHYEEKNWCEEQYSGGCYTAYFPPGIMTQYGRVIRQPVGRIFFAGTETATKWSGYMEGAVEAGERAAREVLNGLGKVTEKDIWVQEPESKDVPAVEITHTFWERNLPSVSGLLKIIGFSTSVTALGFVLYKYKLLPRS
The test can be described thus: HPLC-MS of metabolites. The test is classed as biochemical. The following applies: oxidised to the aldehyde.

In the next test the target is T2, TbALDH3 (Trypanosoma brucei, UniProt Q583M9).
T2 construct: gene Tb06.5F5.780; A6-K490 seen in crystal
T2 sequence (Q583M9 1-543): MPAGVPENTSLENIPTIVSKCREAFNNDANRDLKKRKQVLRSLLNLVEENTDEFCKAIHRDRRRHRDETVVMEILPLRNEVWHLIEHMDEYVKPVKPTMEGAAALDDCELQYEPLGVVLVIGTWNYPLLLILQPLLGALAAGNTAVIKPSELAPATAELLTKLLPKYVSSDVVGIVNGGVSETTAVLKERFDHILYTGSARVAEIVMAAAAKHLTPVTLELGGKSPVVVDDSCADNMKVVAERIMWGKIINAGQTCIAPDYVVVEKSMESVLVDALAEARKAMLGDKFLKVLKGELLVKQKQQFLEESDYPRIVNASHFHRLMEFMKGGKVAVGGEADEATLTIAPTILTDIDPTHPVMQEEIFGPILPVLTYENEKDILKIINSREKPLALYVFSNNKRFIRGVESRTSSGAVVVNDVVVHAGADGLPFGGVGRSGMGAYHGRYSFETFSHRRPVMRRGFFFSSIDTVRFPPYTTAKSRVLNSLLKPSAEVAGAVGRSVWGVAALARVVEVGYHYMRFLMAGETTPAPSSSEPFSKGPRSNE
The test is described as follows: HPLC-MS of metabolites, coupled with MAOa or FBS. The test is classed as biochemical. The following applies: aldehyde made in situ from AN3057; oxidised to the carboxylate (AN2861).

As to `NCc1ccc(Oc2ccc3c(c2)COB3O)cc1` [AN3057, (4-(1-hydroxy-1,3-dihydrobenzo[c][1,2]oxaborol-5-yloxy)phenyl)methanaminium chloride], the HPLC-MS of metabolites entry at MAOa is recorded as “the methylamine group in the structure is first converted by MAOa into an aldehyde”. On to `O=Cc1ccc(Oc2ccc3c(c2)COB3O)cc1` [AN3057-aldehyde], for which the “HPLC-MS of metabolites, coupled with MAOa or FBS” value at TbALDH3 is “converted by MAOa into an aldehyde, and then is further metabolized into a carboxylic acid”.
